Key:
splenocytes = tested on: splenocytes; parameters: species or system BALB/c mice; conditions: mouse, in vivo
[1] = mice; for total vitamin E accumulation in adipose tissues: compared to unsupplemented control mice; for δ-T3 concentration in adipose tissue: compared to the rest of the groups
IFN-γ = tested on: IFN-γ; parameters: species or system BALB/c mice; conditions: mouse, in vivo
[2] = 1 mg oral gavage daily for 56 days

Structure (SMILES) | splenocyte proliferative response to Con A (splenocytes) | splenocyte proliferative response to TT (splenocytes) | total vitamin E accumulation in adipose tissues [1, 2] | α-T (tocopherol) concentration in adipose tissue ([1]; 56 days, compared to the rest of the animal groups) | γ-T3 concentration in adipose tissue ([1]; 56 days, compared to the rest of the animals) | δ-T3 concentration in adipose tissue ([1]; 56 days) | splenocyte proliferation, comparison between vitamin E treated groups (splenocytes) | IFN-γ production following Con A stimulation compared to α-T treated mice (IFN-γ) | total vitamin E levels in adipose tissues, ranking of groups ([1]; 1 mg oral gavage daily for 56 days, between supplemented groups)
Cc1c(C)c2c(c(C)c1O)CC[C@@](C)(CCC[C@H](C)CCC[C@H](C)CCCC(C)C)O2 [α-T, α-tocopherol] | significantly (P<0.05) greater proliferative response | significantly (P<0.05) greater proliferative response | significant (P<0.05) levels of total vitamin E accumulation | significantly (P<0.05) high concentrations of tocopherol | did not have any detectable amounts | did not have any detectable amounts | – | – | –
CC(C)=CCC/C(C)=C/CC/C(C)=C/CC[C@]1(C)CCc2cc(O)cc(C)c2O1 [δ-T3, δ-tocotrienol] | significantly (P<0.05) greater proliferative response | significantly (P<0.05) greater proliferative response | significant (P<0.05) levels of total vitamin E accumulation | – | – | highest in the δ-T3 fed animals and the levels were highly significant (P<0.01) | slightly increased | significant (P<0.05) increase | highest
